Key:
[1] = target: T1, YjdL Gly284Met (Escherichia coli, UniProt P39276, G284M); assay: β-Ala-Lys(AMCA) uptake assay, YjdL Gly284Met; format: cell-based, E. coli; details: 0.2 mM, 5 min, pH 6.5 (Figure 3)
T1 construct: host or cells: E. coli BL21(DE3)pLysS
Procedure: (§1) Plasmids were transformed into E. coli BL21(DE3)pLysS cells by heat shock and transformants were selected on agar plates containing 100 µg/mL ampicillin and 34 µg/mL chloramphenicol. Single transformants were inoculated into 2 mL LB-media with antibiotics as above and grown overnight. The cultures were diluted 1∶50 in 5 mL LB-media with antibiotics as above, and at an OD600 of 0.5–0.8 protein expression was induced by the addition of 1 mM isopropyl β-D-1-thiogalactopyranoside (IPTG). The cells were harvested after three hours of induction by centrifugation and resuspended in uptake buffer (50 mM MES pH 6.5, 140 mM NaCl, 5.4 mM KCl, 1.8 mM CaCl2, 0.8 mM MgSO4, and 5 mM glucose).
(§2) Uptake assays were performed as previously described, [20]. In a final assay volume of 100 µL; 0.2 mM β-Ala-Lys-N-7-amino-4-methylcoumarin-3-acetic acid (β-Ala-Lys(AMCA), Biotrend) (10 µL) and various concentrations of ligands (purchased from Bachem or Sigma-Aldrich) or uptake buffer (50 µL) were incubated with bacterial cell suspension (OD600 = 10, 40 µL) at 37°C. […] Finally the cell pellet was resuspended in 100 µL uptake buffer, and the uptake was quantified by fluorescence measurements (excitation at 340 nm and emission at 460 nm) on a Safire 2 fluorimeter. Non-specific uptake was measured as described above on IPTG-induced E. coli BL21(DE3)pLysS cells harboring the empty pTTQ18 vector. […]

[2] = target: T2, YjdL Asp392Glu (Escherichia coli, UniProt P39276, D392E); assay: β-Ala-Lys(AMCA) uptake assay, YjdL Asp392Glu; format: cell-based, E. coli; details: standard conditions: 0.2 mM, 5 min, pH 6.5 (Figure 3)
T2 construct: host or cells: E. coli BL21(DE3)pLysS
T2 sequence (P39276 whole entry D392E): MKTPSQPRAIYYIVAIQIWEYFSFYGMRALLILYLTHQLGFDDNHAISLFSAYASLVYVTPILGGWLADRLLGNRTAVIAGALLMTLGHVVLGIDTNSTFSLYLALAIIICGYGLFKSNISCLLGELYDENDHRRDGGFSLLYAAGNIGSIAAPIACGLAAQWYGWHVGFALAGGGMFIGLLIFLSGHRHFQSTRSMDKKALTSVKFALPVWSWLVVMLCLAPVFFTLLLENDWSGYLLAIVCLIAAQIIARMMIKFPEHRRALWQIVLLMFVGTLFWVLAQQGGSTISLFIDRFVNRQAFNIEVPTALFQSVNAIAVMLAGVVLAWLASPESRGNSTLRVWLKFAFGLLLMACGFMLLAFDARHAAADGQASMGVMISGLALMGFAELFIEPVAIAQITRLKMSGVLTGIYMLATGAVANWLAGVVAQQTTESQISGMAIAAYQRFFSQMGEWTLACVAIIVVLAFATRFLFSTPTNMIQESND
Procedure: as §1, §2

T1 sequence (P39276 whole entry G284M): as the sequence (P39276 whole entry D392E) above, with G284M, E392D counted along it

β-Ala-Lys-N-7-amino-4-methylcoumarin-3-acetic acid [β-Ala-Lys(AMCA)]
β-Ala-Lys(AMCA) uptake level, YjdL Gly284Met [1]: 20%
β-Ala-Lys(AMCA) uptake level, YjdL Asp392Glu [2]: 26%
